Test results reported in ChEMBL document CHEMBL3044727, “Syntheses, spectral, crystallographic, antimicrobial, and antioxidant studies of few Mannich bases” (2012).

Assays:
Format in all cases: functional
[1] = test system: Radical scavenging activity; test: Antioxidant activity assessed as DPPH radical scavenging activity
[2] = test system: Radical scavenging activity; test: Antioxidant activity assessed as DPPH radical scavenging activity at 125 ug
[3] = test system: Radical scavenging activity; test: Antioxidant activity assessed as DPPH radical scavenging activity at 100 ug
[4] = test system: Radical scavenging activity; test: Antioxidant activity assessed as DPPH radical scavenging activity at 50 ug
[5] = test system: Radical scavenging activity; test: Antioxidant activity assessed as DPPH radical scavenging activity at 75 ug
[6] = test system: Radical scavenging activity; test: Antioxidant activity assessed as DPPH radical scavenging activity at 25 ug
[7] = Antioxidant activity assessed as inhibition of linoleic acid peroxidation by FTC method
[8] = Antioxidant activity assessed as inhibition of linoleic acid peroxidation at 100 ug by FTC method
[9] = Antioxidant activity assessed as inhibition of linoleic acid peroxidation at 125 ug by FTC method
[10] = Antioxidant activity assessed as inhibition of linoleic acid peroxidation at 75 ug by FTC method
[11] = Antioxidant activity assessed as inhibition of linoleic acid peroxidation at 50 ug by FTC method
[12] = Antioxidant activity assessed as inhibition of linoleic acid peroxidation at 25 ug by FTC method
Aspergillus fumigatus [13] = test: Antimicrobial activity against Aspergillus fumigatus MTCC 6594 at 60 ug after 48 hr by streak plate method; conditions: MTCC 6594, 48 h, read-out: IZ
Aspergillus oryzae [14] = test: Antimicrobial activity against Aspergillus oryzae MTCC 3782 at 60 ug after 48 hr by streak plate method; conditions: MTCC 3782, 48 h, read-out: IZ
Aspergillus oryzae [15] = test: Antimicrobial activity against Aspergillus oryzae MTCC 3782 at 40 ug after 48 hr by streak plate method; conditions: MTCC 3782, 48 h, read-out: IZ
Bacillus subtilis [16] = test: Antimicrobial activity against Bacillus subtilis MTCC 4905 at 60 ug after 24 hr by streak plate method; conditions: MTCC 4905, 24 h, read-out: IZ
Bacillus subtilis [17] = test: Antimicrobial activity against Bacillus subtilis MTCC 4905 at 40 ug after 24 hr by streak plate method; conditions: MTCC 4905, 24 h, read-out: IZ
Salmonella typhi [18] = test: Antimicrobial activity against Salmonella enterica subsp. enterica serovar Typhi MTCC 3917 at 60 ug after 24 hr by streak plate method; conditions: MTCC 3917, 24 h, read-out: IZ
Salmonella typhi [19] = test: Antimicrobial activity against Salmonella enterica subsp. enterica serovar Typhi MTCC 3917 at 40 ug after 24 hr by streak plate method; conditions: MTCC 3917, 24 h, read-out: IZ
Salmonella typhi [20] = test: Antimicrobial activity against Salmonella enterica subsp. enterica serovar Typhi MTCC 3917 at 20 ug after 24 hr by streak plate method; conditions: MTCC 3917, 24 h, read-out: IZ
Escherichia coli [21] = test: Antimicrobial activity against Escherichia coli MTCC 3261 at 60 ug after 24 hr by streak plate method; conditions: MTCC 3261, 24 h, read-out: IZ
Escherichia coli [22] = test: Antimicrobial activity against Escherichia coli MTCC 3261 at 40 ug after 24 hr by streak plate method; conditions: MTCC 3261, 24 h, read-out: IZ
Aspergillus fumigatus [23] = test: Antimicrobial activity against Aspergillus fumigatus MTCC 6594 at 40 ug after 48 hr by streak plate method; conditions: MTCC 6594, 48 h, read-out: IZ
Aspergillus fumigatus [24] = test: Antimicrobial activity against Aspergillus fumigatus MTCC 6594 at 20 ug after 48 hr by streak plate method; conditions: MTCC 6594, 48 h, read-out: IZ
Aspergillus oryzae [25] = test: Antimicrobial activity against Aspergillus oryzae MTCC 3782 at 20 ug after 48 hr by streak plate method; conditions: MTCC 3782, 48 h, read-out: IZ
Bacillus subtilis [26] = test: Antimicrobial activity against Bacillus subtilis MTCC 4905 at 20 ug after 24 hr by streak plate method; conditions: MTCC 4905, 24 h, read-out: IZ
Escherichia coli [27] = test: Antimicrobial activity against Escherichia coli MTCC 3261 at 20 ug after 24 hr by streak plate method; conditions: MTCC 3261, 24 h, read-out: IZ

| Compound | Activity [1] | Activity [2] [%] | Activity [3] [%] | Activity [4] [%] | Activity [5] [%] | Activity [6] [%] | inhibition [7] | inhibition [8] [%] | inhibition [9] [%] | inhibition [10] [%] | inhibition [11] [%] | inhibition [12] [%] | zone of inhibition at 60 µg/disc (Aspergillus fumigatus [13]) [mm] | zone of inhibition at 60 µg/disc (Aspergillus oryzae [14]) [mm] | zone of inhibition at 60 µg/disc (Bacillus subtilis [16]) [mm] | zone of inhibition at 40 µg/disc (Bacillus subtilis [17]) [mm] | zone of inhibition at 60 µg/disc (Salmonella typhi [18]) [mm] | zone of inhibition at 40 µg/disc (Salmonella typhi [19]) [mm] | zone of inhibition at 60 µg/disc (Escherichia coli [21]) [mm] | zone of inhibition at 40 µg/disc (Escherichia coli [22]) [mm] | further results |
| --- | --- | --- | --- | --- | --- | --- | --- | --- | --- | --- | --- | --- | --- | --- | --- | --- | --- | --- | --- | --- | --- |
| Oc1cc2ccccc2cc1Cn1cccc1 | Dose-dependent effect | 38 | 36 | 33 | 35 | 32 | Dose-dependent effect | 17 | 19 | 16.2 | 13 | 10 | 3 | 14 | 16 | 14 | 23 | 22 | 14 | 4 | zone of inhibition at 40 µg/disc (Aspergillus oryzae [15]): 10 mm; zone of inhibition at 20 µg/disc (Salmonella typhi [20]): 22 mm |
| C[C@@H]1[C@H](O)[C@@H](C)/C=C/C=C/C=C/C=C/C=C/C=C/C=C/[C@H](O[C@@H]2O[C@H](C)[C@@H](O)[C@H](N)[C@@H]2O)C[C@@H]2O[C@](O)(C[C@@H](O)C[C@@H](O)[C@H](O)CC[C@@H](O)C[C@@H](O)CC(=O)O[C@H]1C)C[C@H](O)[C@H]2C(=O)O [AMPHOTERICIN B] | – | – | – | – | – | – | – | – | – | – | – | – | 30 | 16 | – | – | – | – | – | – | zone of inhibition at 40 µg/disc (Aspergillus fumigatus [23]): 24 mm; zone of inhibition at 20 µg/disc (Aspergillus fumigatus [24]): 26 mm; zone of inhibition at 40 µg/disc (Aspergillus oryzae [15]): 12 mm; zone of inhibition at 20 µg/disc (Aspergillus oryzae [25]): 12 mm |
| O=C1CCC(=O)N1CNc1ccccn1 | Dose-dependent effect | 36 | 27 | 18 | 22 | 17 | Dose-dependent effect | 20 | 21 | 19 | 19 | 18 | 13 | 15 | 8 | 5 | – | – | 12 | 7 | zone of inhibition at 40 µg/disc (Aspergillus fumigatus [23]): 7 mm |
| CN[C@@H]1[C@H](O[C@H]2[C@H](O[C@H]3[C@H](O)[C@@H](O)[C@H](N=C(N)N)[C@@H](O)[C@@H]3N=C(N)N)O[C@@H](C)[C@]2(O)C=O)O[C@@H](CO)[C@H](O)[C@H]1O [STREPTOMYCIN] | – | – | – | – | – | – | – | – | – | – | – | – | – | – | 41 | 33 | 40 | 40 | 45 | 39 | zone of inhibition at 20 µg/disc (Bacillus subtilis [26]): 30 mm; zone of inhibition at 20 µg/disc (Salmonella typhi [20]): 36 mm; zone of inhibition at 20 µg/disc (Escherichia coli [27]): 31 mm |
| O=C1O[C@H]([C@@H](O)CO)C(O)=C1O | – | 59 | 58 | 54 | 57 | 53 | – | 35 | 37 | 31.2 | 27 | 27.2 | – | – | – | – | – | – | – | – | – |
| O=C1CCC(=O)N1CNc1ccccc1 | – | 23 | 20 | 14 | 18 | 10 | – | 19 | 20 | 16 | 15 | 12 | – | – | – | – | – | – | – | – | – |
| O=C1c2ccccc2C(=O)N1CNc1ccccc1 | Dose-dependent effect | 24 | 22 | 19 | 20 | 15 | Dose-dependent effect | 15 | 16 | 15.6 | 13 | 11 | 2 | 4 | 14 | 9 | 5 | 5 | 8 | 3 | zone of inhibition at 40 µg/disc (Aspergillus oryzae [15]): 7 mm; zone of inhibition at 20 µg/disc (Aspergillus oryzae [25]): 7 mm; zone of inhibition at 20 µg/disc (Salmonella typhi [20]): 3 mm |
| VITAMIN E | – | 51 | 50 | 47 | 49 | 45 | – | 29 | 33 | 27 | 26 | 23 | – | – | – | – | – | – | – | – | – |
| CC1(C)S[C@@H]2[C@H](NC(=O)Cc3ccccc3)C(=O)N2[C@H]1C(=O)O [PENICILLIN G] | – | – | – | – | – | – | – | – | – | – | – | – | – | – | 26 | 26 | 24 | 24 | 31 | 30 | zone of inhibition at 20 µg/disc (Bacillus subtilis [26]): 25 mm; zone of inhibition at 20 µg/disc (Salmonella typhi [20]): 20 mm; zone of inhibition at 20 µg/disc (Escherichia coli [27]): 24 mm |
| O=C1CCC(=O)N1C(Nc1ccccc1)c1ccccc1 (stereo unspecified) | Dose-dependent effect | 25 | 18 | 14 | 17 | 9 | Dose-dependent effect | 20 | 22 | 19 | 17 | 16 | 6 | 15 | 17 | 10 | 11 | 6 | 16 | 2 | zone of inhibition at 40 µg/disc (Aspergillus oryzae [15]): 12 mm; zone of inhibition at 20 µg/disc (Aspergillus oryzae [25]): 3 mm |
| O=C1CCC(=O)N1C(Nc1ccccn1)c1ccccc1 (stereo unspecified) | Dose-dependent effect | 25 | 23 | 19 | 20 | 16 | Dose-dependent effect | 19 | 21 | 18 | 17 | 15 | 3 | 9 | 12 | 7 | 6 | 1 | 7 | 4 | zone of inhibition at 40 µg/disc (Aspergillus oryzae [15]): 10 mm; zone of inhibition at 20 µg/disc (Aspergillus oryzae [25]): 12 mm |
| O=C(NC(c1ccccc1)c1cc2ccccc2cc1O)NC(c1ccccc1)c1cc2ccccc2cc1O (stereo unspecified) | Dose-dependent effect | 40 | 37 | 27 | 35 | 28 | Dose-dependent effect | 19 | 24 | 18.3 | 17 | 17 | 11 | 12 | 3 | 4 | 23 | 21 | 9 | 8 | zone of inhibition at 40 µg/disc (Aspergillus fumigatus [23]): 6 mm; zone of inhibition at 40 µg/disc (Aspergillus oryzae [15]): 8 mm; zone of inhibition at 20 µg/disc (Bacillus subtilis [26]): 4 mm; zone of inhibition at 20 µg/disc (Salmonella typhi [20]): 20 mm |
